# Data: patent US20220202783A1, “Use Of ADAM9 Inhibitor As Immunomodulator” (China Medical University, priority 2019, published 2022)
# What was measured:
# [1] = test system: kidney cancer cells (293); test: cytotoxicity assay in 293 cells; type: cell-based; settings: Homo sapiens, HEK293
# [2] = test system: lung cancer cells (Bm7brmx2-1st); test: cytotoxicity assay in Bm7brmx2-1st cells; type: cell-based; parameters: key to effect of inhibiting tumor cell growth: “+” represents that the compound has the effect of inhibiting tumor cell growth
# In short: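 Cells are treated with each Formula (I) compound, viability loss is measured, and the IC50 is derived.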
# recombinant human ADAM9 = biological target: T1, recombinant human ADAM9 (Homo sapiens, UniProt Q13443); test: ADAM9 enzymatic activity ELISA with fluorescent peptide substrate; type: biochemical; settings: different concentrations
# T1 construct: purchased R&D system
# Source text: To measure the efficacy of the compound of Formula (I) in suppression of ADAM9 enzymatic activity, an ELISA system was established using recombinant human ADAM9 and a fluorescent peptide substrate (R&D system) in the experiment. Broad-spectrum MMP inhibitor-BB-94 was included as a positive control. The compounds of Formula (I) used in this experiment were the compound SW1 and the compound SW2.
# [3] = test system: control Bm7 lung cancer cells; test: colony-forming assay, Bm7; type: cell-based; settings: 20 μM, control Bm7 lung cancer cells (shGFP)
# Method: To further test the planting efficiency of tumor cells treated with the compound SW1 and the compound SW2, in the experiment, control Bm7 lung cancer cells (treated with shGFP) and ADAM9 KO Bm7 lung cancer cells (treated with shADAM9) were treated with 20 μM of the compound SW1 or the compound SW2 respectively, and TC1-wild-type (WT) lung cancer cells and TC1-ADAM9 KO lung cancer cells were treated with 10 μM of the compound SW1 or the compound SW2 respectively. Then colony-forming assay was used to confirm the planting efficiency of each test group. Please refer to FIGS. 2D and 2E, wherein mock represents the tumor cell lines without treatment of the compound SW1 or the compound SW2. Representative images of colony-forming assay are shown at the bottom, and data are means±SD of 6 separate wells.
# HPAC-GFP-Luc = test: cytotoxicity on pancreatic cancer cells, HPAC-GFP-Luc; type: cell-based; settings: Pancreatic cancer cell
# Method: (§1) In addition, the IC50 values (unit is μM) of the compound SW1 and the compound SW2 on pancreatic cancer cells were measured in the experiment.
# Bm7 lung cancer cells = test: tumor sphere formation; type: cell-based; settings: 25 μM, 12 hours
# Method: In the experiment, the Bm7 lung cancer cells were treated with 25 μM of the compound SW1 or the compound SW2 for 12 hours, and the number of tumor spheres formed was determined. Please refer to FIG. 2H, where mock represents Bm7 lung cancer cells without treatment.
# TC1-WT lung cancer cells = test: subcutaneous lung tumor mouse model; type: in vivo, C57BL/6 mice; settings: 10 mg/kg subcutaneous injection once a day, Day 15 to Day 24, vs DMSO control
# Method: In order to further evaluate whether the treatment of ADAM9 inhibitors will give the same results as the ADAM9 gene knockout, TC1-WT lung cancer cells were injected subcutaneously into C57BL/6 mice with normal immunity to establish a subcutaneous lung tumor mouse model, and the ADAM9 inhibitor (the compound SW1, 10 mg/kg) was treated by subcutaneous injection. From Day 15 to Day 24, the compound SW1 was injected once a day for […]. The tumor volume was observed on Day 12, Day 20 and Day 27, respectively. […] The control group was injected with DMSO as a control for the treatment of the ADAM9 inhibitor.
# [4] = test system: 4T1-luc breast cancer cells; test: syngeneic orthotopic breast tumor animal model, immune cell infiltration; type: in vivo, BALB/c mice; settings: 10 mg/kg subcutaneous
# Source text: Please further refer to FIG. 7B, which is a flow chart of the ADAM9 inhibitor used in the treatment of a syngeneic orthotopic breast tumor animal model. In the experiment, 4T1-luc breast cancer cells (5×10^4) were transplanted into the breast fat pads of BALB/c mice to establish the syngeneic orthotopic breast tumor animal model. The IVIS imaging system is used for detection, and the tumor size is represented by the luminous flux of the IVIS image. After tumor images were detected on Day 15, the ADAM9 inhibitor (the compound SW1, 10 mg/kg) was pretreated by subcutaneous injection on Day 16, Day 18, and Day 20. After the tumor was surgically removed on Day 21, the ADAM9 inhibitor (the compound SW1, 10 mg/kg) was continuously treated on Day 23, Day 25, Day 27, Day 29 and Day 31. The surgically resected syngeneic orthotopic breast tumor animal model tumors were stained by immunohistochemistry. In the experiment, a control group was injected with DMSO as a control for the treatment of the ADAM9 inhibitor. Please further refer to FIGS. 8A and 8B, which show the analysis results of the effect of the ADAM9 inhibitor on immune cell infiltration.
# [5] = test system: human colon cancer cells SW620; test: cytokine RNA expression by RT-qPCR, SW620; type: cell-based; settings: 12.5 μM, 24 hours
# Method: (§2) We further analyzed whether the treatment of the ADAM9 inhibitor can stimulate tumor cells to secrete cytokines to activate the anti-tumor immunity of the ADAM9 inhibitor. In the experiment, human colon cancer cells SW620 and human pancreatic cancer cells PANC-1 were treated with 12.5 μM of the compound SW1, and human esophageal cancer cells C[…] were treated with 5 μM of the compound SW1. After 24 hours, the cells were collected and the RNA expression levels of CXCL10, CXCL11, CXC3CL1 and IFNB were detected by RT-qPCR. CXCL10, CXCL11 and […] are cytokines that promote the immune response of CD8^+ T cells, and IFNB is a cytokine with anti-cancer effects. Please refer to FIGS. 10A, 10B and 10C, which show the analysis results of the ADAM9 inhibitor stimulated tumor cells to secrete cytokines.
# [6] = test system: human pancreatic cancer cells PANC-1; test: cytokine RNA expression by RT-qPCR, PANC-1; type: cell-based; settings: 12.5 μM, 24 hours
# Method: as §2
# [7] = test system: human esophageal cancer cells CE146T; test: cytokine RNA expression by RT-qPCR, CE146T; type: cell-based; settings: 5 μM, 24 hours
# Method: as §2
# MiaPaCa = test: cytotoxicity on pancreatic cancer cells, MiaPaCa; type: cell-based; settings: Homo sapiens, MIA PaCa-2
# Method: as §1
# T1 sequence (Q13443 29-819): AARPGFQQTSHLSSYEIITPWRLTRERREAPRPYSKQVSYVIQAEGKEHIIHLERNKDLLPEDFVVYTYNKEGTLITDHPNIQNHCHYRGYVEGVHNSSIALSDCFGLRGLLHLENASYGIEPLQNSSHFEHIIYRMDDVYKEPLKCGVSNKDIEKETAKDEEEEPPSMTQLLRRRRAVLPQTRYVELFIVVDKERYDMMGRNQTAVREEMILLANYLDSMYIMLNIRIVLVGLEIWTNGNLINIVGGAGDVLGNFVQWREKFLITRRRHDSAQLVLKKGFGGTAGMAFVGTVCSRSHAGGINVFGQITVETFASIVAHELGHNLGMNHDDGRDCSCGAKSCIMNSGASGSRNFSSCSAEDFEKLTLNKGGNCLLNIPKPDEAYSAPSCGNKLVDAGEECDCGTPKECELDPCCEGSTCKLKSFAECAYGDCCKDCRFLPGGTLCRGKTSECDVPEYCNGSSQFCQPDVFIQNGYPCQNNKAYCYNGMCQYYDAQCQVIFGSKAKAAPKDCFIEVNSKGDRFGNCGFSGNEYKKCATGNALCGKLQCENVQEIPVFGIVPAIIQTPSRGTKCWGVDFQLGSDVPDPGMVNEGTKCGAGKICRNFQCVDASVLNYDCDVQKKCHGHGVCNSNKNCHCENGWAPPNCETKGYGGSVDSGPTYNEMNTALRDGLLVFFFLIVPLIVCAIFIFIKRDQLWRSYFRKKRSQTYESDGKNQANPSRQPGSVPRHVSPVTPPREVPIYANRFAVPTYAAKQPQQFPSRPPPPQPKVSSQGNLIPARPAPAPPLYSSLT
Compound,IC50 [1] [µM],IC50 [2] [µM],effect of inhibiting tumor cell growth [2],inhibition of ADAM9 activity (recombinant human ADAM9),"planting efficiency, colony-forming assay [3]",IC50 (HPAC-GFP-Luc) [µM],number of tumor spheres formed (Bm7 lung cancer cells),tumor growth (tumor volume) (TC1-WT lung cancer cells),number of infiltrating neutrophils ([4]; 4T1 primary breast tumors and lung metastatic breast tumors),number of infiltrating T cells ([4]; primary 4T1 breast tumors and lung metastatic breast tumors),"RNA expression levels of CXCL10, CXCL11, CXC3CL1 and IFNB [5]","RNA expression levels of CXCL10, CXCL11, CXC3CL1 and IFNB [6]","RNA expression levels of CXCL10, CXCL11, CXC3CL1 and IFNB [7]",IC50 (MiaPaCa) [µM]
O=C1c2ccccc2C(=O)N1CCc1csc(Nc2nc(CCN3C(=O)c4ccccc4C3=O)cs2)n1 [SW1],81.3,40.4,+,decrease ADAM9 activity to a similar extent in a dose-dependent manner,greatly reduce the planting efficiency,126,greatly reduce the number of tumor spheres,reduces tumor growth,greatly reduced,increased,"increase the expressions of CXCL10, CXCL11, CXC3CL1 and IFNB","increase the expressions of CXCL10, CXCL11, CXC3CL1 and IFNB","increase the expressions of CXCL10, CXCL11, CXC3CL1 and IFNB",
O=C(Nc1nc(CCN2C(=O)c3ccccc3C2=O)cs1)c1cc2ccccc2s1 [SW2],15,44.3,+,decrease ADAM9 activity to a similar extent in a dose-dependent manner,greatly reduce the planting efficiency,29.3,greatly reduce the number of tumor spheres,,,,,,,8.5
